Here are results for seven compounds from patent US20070166547A1, “Use of a layer consisting of hydrophobic linear, or two-dimensional polycyclic aromatics as a barrier layer or an encapsulation and electric components constructed with a layer of this type and comprising organic polymers” (priority 2003, published 2007).

Data set [1] can be described thus: Polarographic study of electrochemical reduction (electrochemical activity). As to conditions: for half-wave potential more positive on reverse stroke than on forward stroke: reverse stroke vs forward stroke; for number of electrons participating in the reduction: calculated with the Geirovsky-Ilkovich equation; for i, mkA (polarographic wave current) / −E1/2, V (half-wave potential vs SCE): 37° C., forward trace, average for the group; for i, mkA (polarographic wave current): 9·10^−4 M. It counts as physicochemical. On the procedure: The study was carried out on a general-purpose polarograph PU-1 with a two-coordinate recorder of the “LKD” type using a three-electrode thermostatically controlled polarographic cell and mercury dripping electrode (MDE) with forced separation of the drop and a dropping period of 0.5 second. A platinum wire was used as an auxiliary electrode and a saturated calomel electrode (SCE) was used as a control electrode.
2.0% solutions of sodium chloride having pH 7.0, 7.2, 7.4, 7.6 were used as a background; the pH values of the background solution were corrected by a solution of sodium hydroxide. The polarographic cell was filled with 5.0 ml of the background solution and for 5 minutes was purged with nitrogen for removing the dissolved oxygen. Then 0.5 ml of solution of the studied substance was added to the background solution, and the polarogram was recorded as a polarographic wave. The concentration of the compounds in the polarographic cell was 9·10^−4 M.
The pH was measured on the pH-meter with an accuracy of ±0.05 pH units. The polarographic measurements were carried out at a temperature of 37° C. The recording of polarograms of the investigated materials was effected under conditions of DC current at a scanning rate of the potential 10.0 mV/s with a active scanning stroke from a potential 0 to −0.5 V and sweep retrace from a −0.5 V to 0. The electric-current sensitivity was 5.0 mkA. The scale by the coordinate of the potentials was 50.0 mV/cm. The values of potentials of the half-wave E1/2 of the investigated materials are given with respect to the SCE potential.
The polarogram parameters such as a limiting current ilim and E1/2 were determined by the graphic method. The number of electrons participating in the reaction was calculated on the basis of the analysis of the polarographic wave using the Geirovsky-Ilkovich equation.

A short description of data set [2]: Chronic toxicity, rectal suppositories: indexes of peripheral blood. The settings on record: male rats; for Basophiles / Juveniles: 1 month/2 months (one value given).
Description: The experiments were conducted on inbred rats. The experimental animals were selected in groups by a method of random sampling taking into account the body mass as a determining index; 24 males or 24 females for one preparation from compounds 2, 15, 23, 34, 37 investigated in one dose.
Two doses of preparations used in the experiments: 50 mg/kg and 500 mg/kg. Before the administration, the suppositories were softened by heating in a glass water bath at a temperature of 38-39° C., the soft mass was collected in tuberculin syringe in a volume of 1 ml, a needle with oliva was attached to the syringe, and the preparatory mass was introduced into the rectum of the animal for a depth of 1.5-2.0 cm. The animals of the control group were administered with sterile medical liquid paraffin in a volume corresponding to the volume of the investigated suppository. A complete course of administration of drugs to the animals was two months. A complex of laboratory diagnostic investigations was carried out one month after the beginning of the administration of the preparation to the animal—in a middle of the course (8 animals), two months after ending the course (8 animals) and three months after ending the recovery period of one month (8 animals). The mass of the body of the rats in the first month of administration of the preparation was determined weekly, and then once in two weeks. On the basis of the dynamics of an index of the mass of the animal body, the volume of preparation being administered was corrected taking into account the test dose.
Where [3] appears, read: suppositories 50 mg/kg, 1 month.
Setting [4] is: suppositories 50 mg/kg, 2 months.
Setting [5] is: suppositories 500 mg/kg, 1 month.
The mark [6] stands for this setting: suppositories 500 mg/kg, 2 months.

Regarding `O=c1[nH][nH]c(=O)c2nccnc12.[Na]` [Compound 26, sodium salt of pyrazine[2,3-d]-6H-pyridazine-5,8-dione], the “half-wave potential more positive on reverse stroke than on forward stroke” value (“half-wave potential more positive” below) in data set [1] is 27.0 mV.

`O=c1[nH]n([C@@H]2O[C@H](CO)[C@@H](O)[C@H]2O)c(=O)c2ncnc(O)c12.[Na]` [Compound 33, sodium salt of 4-hydroxy-7-(β-D-ribofuranosile)pyrimido[4,5-d]-6H-pyridazine-5,8-dione]: in data set [1], the “number of electrons participating in the reduction” value (“number … in the reduction” for short) is 3.5. The “i, mkA (polarographic wave current)” value in data set [1] (pH 7.0) worked out at 0.30 ± 0.05 mkA; in data set [1] (pH 7.2) it was 0.26 ± 0.02 mkA; in data set [1] (pH 7.4), 0.30 ± 0.03 mkA; in data set [1] (pH 7.6), 0.30 ± 0.02 mkA. Moreover, the “−E1/2, V (half-wave potential vs SCE)” value in data set [1] (pH 7.0) is recorded as 0.08 ± 0.02 V; in data set [1] (pH 7.4), 0.085 ± 0.02 V; in data set [1] (pH 7.6) it was 0.09 ± 0.02 V. The “half-wave potential more positive” value in data set [1] is 27.0 mV.

As to `O=C([O-])c1ncnc2c(=O)n([C@@H]3O[C@H](CO)[C@@H](O)[C@H]3O)[nH]c(=O)c12.[Na+]` [Compound 34, sodium salt of 4-carboxy-7-(β-D-ribofuranosile)pyrimido[4,5-D]-6H-pyridazine-5,8-dione], in data set [2] (setting [3]), the “Average volume of erythrocytes” value is 81.6 ± 1.9 Mkm^3; the “Coagulation, time” value was found to be 148 ± 16 s; the Eosinophiles is recorded as 3.5 ± 1.0%; the Erythrocytes worked out at 5.6 ± 0.1 mln/mm^3. In data set [2] (setting [3]), the Haematocrite came out at 46.9 ± 1.1%, the Hemoglobin came out at 10.6 ± 0.1 mmol/L, the Leukocyte amounted to 15.9 ± 1.3 thousand/mm^3 and the REE worked out at 1.8 ± 0.5 mm/h. In data set [2] (setting [3]), this compound gave a Reticulocytes of 2.7 ± 0.1%, a Stab neutrophil of 1.0 ± 0.4% and a Thrombocytes of 670 ± 23. For the same compound, in data set [2] (suppositories 50 mg/kg), the Basophiles is given as 0% and the Juveniles is listed as 0%. In data set [2] (setting [4]), the “Average volume of erythrocytes” value is on record as 76.7 ± 1.9 Mkm^3; the “Coagulation, time” value worked out at 321 ± 10 s; the Eosinophiles was found to be 4.1 ± 0.4%; the Erythrocytes came to 6.1 ± 0.2 mln/mm^3. In data set [2] (setting [4]), this compound came in with a Haematocrite of 47.5 ± 1.2%, a Hemoglobin of 11.1 ± 0.2 mmol/L, a Leukocyte of 17.8 ± 1.4 thousand/mm^3 and an REE of 1.7 ± 0.3 mm/h. Also, in data set [2] (setting [4]), the Reticulocytes worked out at 2.9 ± 0.2%, the Stab neutrophil amounted to 1.8 ± 0.5% and the Thrombocytes stood at 610 ± 15. Moreover, in data set [2] (setting [5]), the “Average volume of erythrocytes” value worked out at 84.1 ± 1.3 Mkm^3, the Eosinophiles was determined as 3.0 ± 0.9%, the Erythrocytes came out at 5.6 ± 0.2 mln/mm^3 and the Haematocrite was found to be 48.1 ± 1.5%. Also, in data set [2] (setting [5]), the Hemoglobin came to 10.6 ± 0.3 mmol/L, the Leukocyte amounted to 16.9 ± 1.0 thousand/mm^3, the REE was 2.0 ± 0.4 mm/h and the Reticulocytes was determined as 3.2 ± 0.2%. In data set [2] (setting [5]), this compound gave a Stab neutrophil of 0.9 ± 0.2% and a Thrombocytes of 682 ± 24. In data set [2] (suppositories 500 mg/kg), the Basophiles worked out at 0% and the Juveniles was 0%. In data set [2] (setting [6]), the “Average volume of erythrocytes” value was 83.8 ± 1.5 Mkm^3; the “Coagulation, time” value came to 312 ± 9 s; the Eosinophiles is listed as 3.9 ± 1.4%; the Erythrocytes came out at 6.6 ± 0.1 mln/mm^3. In data set [2] (setting [6]), the Haematocrite worked out at 53.1 ± 1.6%, the Hemoglobin worked out at 12.4 ± 0.4 mmol/L, the Leukocyte is on record as 22.1 ± 1.1 thousand/mm^3 and the REE is recorded as 1.8 ± 0.2 mm/h. Also, in data set [2] (setting [6]), the Reticulocytes was found to be 3.5 ± 0.3%, the Stab neutrophil amounted to 1.4 ± 0.3% and the Thrombocytes was 631 ± 26.

`COP(=O)(OC)C(C)(C)CC(C)=O` [dimephosphon, dimethyl ester of 1,1-dimethyl-3-oxybuthyl of phosphonic acid, reference compound]: the “number … in the reduction” value in data set [1] was 1.6. The “i, mkA (polarographic wave current)” value in data set [1] (pH 7.0) worked out at 0.10 ± 0.03 mkA; in data set [1] (pH 7.2) it was 0.12 ± 0.03 mkA; in data set [1] (pH 7.4) it was 0.11 ± 0.02 mkA; in data set [1] (pH 7.6), 0.11 ± 0.02 mkA. In addition, the “−E1/2, V (half-wave potential vs SCE)” value was 0.175 ± 0.01 V in data set [1] (pH 7.0), 0.17 ± 0.02 V in data set [1] (pH 7.2), 0.18 ± 0.01 V in data set [1] (pH 7.4) and 0.18 ± 0.01 V in data set [1] (pH 7.6). Also, the “half-wave potential more positive” value in data set [1] is on record as 50.0 mV.

As for “disodium salt of 3-Kap ? OKC ? -7-(β-D-ribofuranosile)pyrido[2,3-d]-6H-pyridazine-5,8-dione [Compound 5]”, the “number … in the reduction” value in data set [1] is recorded as 3.72. For the same compound, the “i, mkA (polarographic wave current)” value in data set [1] (pH 7.0) is recorded as 0.26 ± 0.04 mkA; in data set [1] (pH 7.2), 0.31 ± 0.02 mkA; in data set [1] (pH 7.4), 0.27 ± 0.03 mkA; in data set [1] (pH 7.6), 0.30 ± 0.01 mkA. Also, the “−E1/2, V (half-wave potential vs SCE)” value in data set [1] (pH 7.0) is 0.11 ± 0.02 V; in data set [1] (pH 7.2) it was 0.11 ± 0.03 V; in data set [1] (pH 7.4), 0.105 ± 0.01 V; in data set [1] (pH 7.6), 0.105 ± 0.02 V. The “half-wave potential more positive” value in data set [1] stood at 25.0 mV.

For the compound “potassium salt of 3-bromine-pyrazine[2,3-Cl]-6H-pyridazine-5,8-dione [Compound 27]”, the “number … in the reduction” value in data set [1] is 3.72. The “i, mkA (polarographic wave current)” value in data set [1] (pH 7.0) is listed as 0.32 ± 0.03 mkA; in data set [1] (pH 7.2) it was 0.33 ± 0.04 mkA; in data set [1] (pH 7.4), 0.34 ± 0.03 mkA; in data set [1] (pH 7.6), 0.34 ± 0.02 mkA. The “−E1/2, V (half-wave potential vs SCE)” value is 0.16 ± 0.02 V in data set [1] (pH 7.0), 0.19 ± 0.02 V in data set [1] (pH 7.2), 0.175 ± 0.01 V in data set [1] (pH 7.4) and 0.16 ± 0.015 V in data set [1] (pH 7.6). In addition, the “half-wave potential more positive” value in data set [1] stood at 20.0 mV.

With “sodium salt of 7-(β-O-ribofuranosile)pyrido[2,3-1]-6H-pyridazine-5,8-dione sodium salt [Compound 1]”, the “number … in the reduction” value in data set [1] is listed as 3.72. Further, the “i, mkA (polarographic wave current)” value stood at 0.26 ± 0.04 mkA in data set [1] (pH 7.0), 0.31 ± 0.02 mkA in data set [1] (pH 7.2), 0.27 ± 0.03 mkA in data set [1] (pH 7.4) and 0.30 ± 0.01 mkA in data set [1] (pH 7.6). Besides, the “−E1/2, V (half-wave potential vs SCE)” value in data set [1] (pH 7.0) was 0.11 ± 0.02 V; in data set [1] (pH 7.2), 0.11 ± 0.03 V; in data set [1] (pH 7.4), 0.105 ± 0.01 V; in data set [1] (pH 7.6), 0.105 ± 0.02 V. The “half-wave potential more positive” value in data set [1] is 25.0 mV.
